The values that follow are results of earlier work, collected in patent publication US20170046504A1, “SYSTEM FOR DETERMINING A SUITABILITY OF AN ACTIVE INGREDIENT TO BE APPLIED TRANSDERMALLY OR TRANSMUCOSALLY AND CORRESPONDING METHOD” (LTS Lohmann Therapie-Systeme AG, priority 2014, published 2017).

Each structure is given as a SMILES string.

The conditions of series [1]: in vivo.
The conditions of series [2]: assumed.

As to `CN1CCCC1c1cccnc1` (centres unmarked) [nicotine], in series [1], the half-life period was 1 to 6 h. The “efficiency for oral administration” value in series [2] was 20-45%.
